This is an account of results in US6338963B1, “Use of carbon monoxide dependent guanylyl cyclase modifiers to stimulate neuritogenesis” (NeoTherapeutics, Inc., priority 1994, dated 2002).

The structures appear in SMILES notation.

In assay [1] the test system is cultured neurons from rat cerebral cortex. Nature of the assay: NMDA-induced toxicity in cultured rat cortical neurons, astrocyte conditioned medium. The assay is classed as cell-based. Conditions: CM from astrocytes treated 6 hours with AIT-082. The method, then: In these experiments, cultured neurons were prepared from rat cerebral cortex. In these cultures the NMDA pulse (100 μM for 10 min) provoked about 80% neuronal death (measured by Trypan blue cell staining or LDH activity). Separately, cultured astrocytes were treated for 6 hours with AIT-082. Then, the medium containing the drug was replaced with fresh medium without the drug and the astrocyte cultures were maintained in this medium for the next 24 hours. This medium represented the CM and was added to neurons soon after the toxic pulse with NMDA. The addition of CM partly counteracted the toxic effects caused by NMDA, reducing the neuronal damage by about 50%. If the medium was boiled for 20 min at 100° C. prior to addition to NMDA-damaged neurons, it completely lost the protective activity. […] To verify whether the neuroprotection caused by AIT-082 was ascribable to the production of TGFβ2 or NGF, antibodies to TGFβ2 or to NGF (100 ng/ml) were added together with CM.
Conversely, when DPCPX (100 nm) was added to astrocyte cultures together with AIT-082, the neuroprotective effect of the resulting CM deriving from the culture of the astrocytes with AIT-082 was reduced by only 20%, as compared to the neuroprotective effect of CM derived from astrocytes exposed to AIT-082 alone (assumed as equal to 100%).

The test system of assay [2] is basal forebrain cholinergic neurons. Nature of the assay: Fimbria-fornix transection, ChAT-positive medial septum neurons. The assay is classed as in vivo, F344 rats. As to conditions: AIT-082 30 mg/kg IP every three days, 14 days post-lesion. On the procedure:
This model is the gold standard for examining the effects of neurotrophic factors, neurotrophic factor-releasing agents, and neurotrophic factor analogues in the central nervous system (CNS). Fimbria-fornix transections (FFT) are performed to induce the degeneration of basal forebrain cholinergic (BFC) neurons. […] The infusion of nerve growth factor completely prevents the degeneration of these neurons. In this experiment, animals received AIT-082 to determine whether it would prevent lesion-induced degeneration of BFC neurons.
Adult female F344 rats received an intraperitoneal (IP) injection of AIT-082 (30 mg/kg) or saline one hour prior to receiving a unilateral fimbria-fornix transection (FFT) (n=6 per group). All animals survived the surgery and continued to receive IP injections of AIT-082 or vehicle every three days following the lesion. All animals were perfused with fixative at 14 days post-lesion and brains were sectioned and processed for choline acetyltransferase (ChAT) and p75 immunoreactivity. For analysis, three sections, 240 μm apart, were taken at the level of the medial septum and ChAT positive cells were counted both ipsilateral and contralateral to the lesion.
For the results of FIG. 44, ChAT-positive cells were counted in three sections, 240 μm apart. Data was expressed as a ratio of cell counts ipsilateral to the lesion divided by counts contralateral to the lesion. […]

Another assay relates to NT-3. In words: Two-site ELISA of growth factor protein in rat brain and spinal cord: NT-3. The assay is classed as in vivo, F344 rats. On the procedure:
(§1) Adult female F344 rats were given either AIT-082 (doses: 30 mg/kg/day or a higher dose of 30 mg/ml (˜3,000 mg/kg/day); n=6 rats per group) in their drinking water, or water alone, as a vehicle for control. The duration of the study was seven days, at which time the rats were anesthesized and perfused with ice-cold saline. The brains of the rats were rapidly removed. The brains were placed on a chilled glass plate and dissected into the following regions: basal forebrain, frontal cortex, parietal cortex, cerebellum, spinal cord, and hippocampal formation. Tissues were stored at −70° C. until assayed in a specific two-site ELISA for either NGF, BDNF, NT-3, or GNDF.
(§2) The results are shown in FIGS. 45 (BDNF), 46 (NT-3), 47 (GDNF) and 48 (NGF). For the results shown in FIGS. 45-48, animals were given only water (VEH, n=6) or water with AIT-082 at either 30 mg/kg/day (n=6) or 30 mg/ml (n=6) for seven days. The levels of each growth factor were determined in the frontal cortex (F. Cor.), parietal cortex (P.Cor.), hippocampal formation (Hipp.), basal forebrain (B.F.), cerebellum (Cer.), or spinal cord (Cord) using a specific two-site ELISA for each growth factor.
(§3) Adult female rats were given AIT-082 (30 mg/kg/day) in their drinking water or drinking water alone (n=6 for each group) for seven days prior to receiving a bilateral fimbria fornix transection (FFT).
The results are shown in FIGS. 49 (BDNF), 50 (NT-3), 51 (GDNF) and 52 (NGF). For the results shown in the Figures, animals were given only water (VEH, n=3) or water with AIT-082 at 30 mg/kg/day (n=3). Levels of the growth factor were determined in frontal cortex (F.Cor.), parietal cortex (P.Cor.), hippocampal formation (Hipp.), basal forebrain (B.F.), cerebellum (Cer.), or spinal cord (Cord) using a specific two-site ELISA for each growth factor.
Aged female Fischer 344 rats (obtained from National Institute on Aging; 24 months on arrival) were given AIT-082 (30 mg/kg/day) in their drinking water or drinking water alone, for a period of 30 days (n=5 rats per group). After 30 days, animals were sacrificed and fresh tissues were dissected as described above. An additional set of young animals (n=5) was processed along with the aged rats for comparison.
Results are shown in FIGS. 53 (BDNF), 54 (NT3), 55 (GDNF), and 56 (NGF). As described above, for the results shown in these figures, aged rats (24 months of age) were given water (vehicle control; n=5) or water with AIT-082 (at 30 mg/kg/day; n=5 for 30 days). A separate group of young untreated animals was also included (n=5). Levels of each growth factor were determined in frontal cortex (F.Cor.), parietal cortex (P. Cor.), hippocampal formation (Hipp.), basal forebrain (B.F.), cerebellum (Cer.) or spinal cord (Cord) using a specific two-site ELISA.

The test system of another assay is NGF. Nature of the assay: Two-site ELISA of growth factor protein in rat brain and spinal cord: NGF. The assay is classed as in vivo, F344 rats. On the procedure:
as §1, §2, §3
The results are shown in FIGS. 49 (BDNF), 50 (NT-3), 51 (GDNF) and 52 (NGF). […] Levels of the growth factor were determined in frontal cortex (F.Cor.), parietal cortex (P.Cor.), hippocampal formation (Hipp.), basal forebrain (B.F.), cerebellum (Cer.), or spinal cord (Cord) using a specific two-site ELISA for each growth factor. […]
Results are shown in FIGS. 53 (BDNF), 54 (NT3), 55 (GDNF), and 56 (NGF). […] Levels of each growth factor were determined in frontal cortex (F.Cor.), parietal cortex (P. Cor.), hippocampal formation (Hipp.), basal forebrain (B.F.), cerebellum (Cer.) or spinal cord (Cord) using a specific two-site ELISA.

Another assay relates to mice. Nature of the assay: Exploratory activity in novel large cage. The assay is classed as in vivo. As to conditions: 30 minutes. The method, then: To measure exploratory behavior, subjects received saline or AIT-082 administration, were placed in a novel large cage (25×48×16 cm, W×L×H), and movement was measured at one-minute intervals for 30 minutes. The large cage (San Diego Instruments, San Diego, Calif.) was equipped with vertical detectors and rearing movements were also recorded.

As for `O=C(CCn1cnc2c(=O)[nH]cnc21)Nc1ccc(C(=O)O)cc1` [AIT-082, N-4-carboxyphenyl-3-(6-oxohydropurin-9-yl)propanamide], the “reduction of neuronal damage caused by NMDA” value in assay [1] is recorded as “about 50%”. Further, in assay [2], the “lesion-induced loss of ChAT-labeled cells in the BFC region” value was “did not reduce lesion-induced loss of ChAT-labeled cells”. In addition, the “NT-3 protein levels compared to vehicle controls” value with NT-3 (FFT-lesioned rats, 30 mg/kg/day, basal forebrain) is “threefold”. Further, the NT-3 protein levels entry with NT-3 (aged rats, 30 mg/kg/day 30 days, hippocampus) was “restored NT-3 protein levels to those of young animals”; in the assay on NT-3 (intact adult rats, 30 mg/kg/day, cerebellum), “increased NT-3 levels in cerebellum over vehicle controls”; with NT-3 (intact adult rats, 3000 mg/kg/day, cerebellum), “absent”. The NGF protein levels result with NGF (FFT-lesioned rats, 30 mg/kg/day) was “No significant increases”; in the assay on NGF (aged rats, 30 mg/kg/day 30 days, any brain region), “no effect”; in the assay on NGF (intact adult rats) it was “No changes”. For the same compound, the exploratory activity result with mice was “No effects were noted”.
